Experimental data from patent US5401512A, “Delayed release oral dosage forms for treatment of intestinal disorders” (priority 1991, dated 1995).

Key:
[1] = Serum levels of 5-ASA and N-acetyl-5-ASA after single oral dose in seven healthy volunteers; type: in vivo, healthy volunteers (human); conditions: 7 volunteers
Procedure: (§1) Each of the batches of coated granules were separately packed into size 00 hard gelatin capsules (LOK-CAP, Eli Lilly) in an amount of 400 mg granules per capsule. The capsules were then spray coated with […] per capsule of a coating solution of the following formula: […]
(§2) Seven healthy volunteers were then each given blind on three separate occasions a single dose consisting of (a) 8 tablets of enteric coated 500 mg sulphasalazine tablets, (b) 8 of the enteric coated capsules containing the 20% Eudragit coated 5-ASA granules, and (c) 8 of the enteric coated capsules containing the 25% Eudragit coated 5-ASA granules. The serum levels of 5-ASA and N-acetyl-5-ASA at various times following administration were measured together with the total urinary excretion of 5-ASA and N-acetyl-5-ASA. In each case the values are given to three significant figures with 0 representing less than 2 ng/ml. The following abbreviations are used:
Tmax =time for the maximum serum concentration in hours, median and interquartials ranges
Cmax =maximum serum concentration attained in ng/ml
Thalf =estimated biological half life of elimination
KE=estimated first order in elimination rate constant

[2] = cited from earlier work; for Absorption before reaching the colon: oral administration, sulphapyridine and 5-ASA without the azo-bond
[3] = Total urinary excretion of 5-ASA and N-acetyl-5-ASA after single oral dose in seven healthy volunteers; type: in vivo, healthy volunteers (human); conditions: 7 volunteers
Procedure: as §1
as §2, with “ng/ml.” for “ng/ml. The following abbreviations are used:”

SMILES | Thalf (estimated biological half life of elimination) of 5-ASA ([1]; 5-ASA) | Thalf (estimated biological half life of elimination) of N-Ac-5-ASA ([1]; N-Ac-5-ASA) | Absorption before reaching the colon [2] | Mean urinary excretion of 5-ASA ([3]; 5-ASA) [ng/mL] | Mean urinary excretion of N-Ac-5-ASA ([3]; N-Ac-5-ASA) [ng/mL] | Pharmacologically active agent in treatment of colonic disease with SASP ([2]; Khan et al, The Lancet 1977)
O=C(O)c1cc(/N=N/c2ccc(S(=O)(=O)Nc3ccccn3)cc2)ccc1O [Sulphasalazine, Salicylazosulphapyridine] | 19.4 ± 12.9 | 60.1 ± 50.1 | only absorbed to a limited extent before reaching the colon | 0 ± 0 | 170 ± 35 | 
Nc1ccc(O)c(C(=O)O)c1 [5-ASA, 5-amino-salicylic acid] |  |  | almost entirely absorbed from the small intestine before reaching the colon |  |  | pharmacologically active agent
Nc1ccc(S(=O)(=O)Nc2ccccn2)cc1 [sulphapyridine] |  |  | almost entirely absorbed from the small intestine before reaching the colon |  |  | 
